US11898187B2 (priority 2017, dated 2024)

Test system: HiNGT, EcNGT, ApNGT and ApNGT^Q469A
Format: biochemical

**Q.** With WGNWS as the substance, how does the “differential sequence preference in regard to N-glycosylation: which NGT modifies the sequence” value read?
**A.** Its value is “for EcNGT but not for HiNGT”.
